Data: patent EP1247803A2, “Indolinone compounds suitable for modulation of protein kinases” (Sugen, Inc., priority 1996, dated 1998)

Tests used:
MET = MET biochemical kinase assay; set-up: species or system human; concentration or dose not given beside the values
Procedure, shortened: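 Lysate-derived MET, or chimeric receptors, is immobilised on plates through an antibody to the human MET cytoplasmic region. Compounds are added along with kinase buffer supplying ATP and divalent metal ions, and receptor autophosphorylation is quantified by anti-phosphotyrosine ELISA.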

FLK-1 receptor = target: T1, FLK-1 receptor (Mus musculus, UniProt P35918); experiment: FLK-1 ELISA (kinase activity of the FLK-1 receptor in FLK-1/NIH3T3 cells, VEGF stimulated); format: cell-based
T1 construct: expressed in transfected cells; host or cells: NIH3T3 C7#3
Procedure, shortened: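 NIH3T3 C7#3 cells expressing FLK-1 were seeded at 25.000 cells/well, serum-starved overnight in 0.1% FBS, then treated with compound for two hours at 37°C (final DMSO 0.5%) before VEGF stimulation. Receptor was captured on anti-rabbit IgG-coated ELISA plates bearing affinity-purified anti-FLK-1 antiserum.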

PDGF-R = PDGF-R (Homo sapiens, UniProt P09619); experiment: PDGF-R ELISA; format: cell-based
Source text: A PDGF-R ELISA is described in International Patent Publication No. WO 96/40116, published December 19, 1996 by Tang et al.

Chain of PDGF-R (P09619 33-1106, species assumed): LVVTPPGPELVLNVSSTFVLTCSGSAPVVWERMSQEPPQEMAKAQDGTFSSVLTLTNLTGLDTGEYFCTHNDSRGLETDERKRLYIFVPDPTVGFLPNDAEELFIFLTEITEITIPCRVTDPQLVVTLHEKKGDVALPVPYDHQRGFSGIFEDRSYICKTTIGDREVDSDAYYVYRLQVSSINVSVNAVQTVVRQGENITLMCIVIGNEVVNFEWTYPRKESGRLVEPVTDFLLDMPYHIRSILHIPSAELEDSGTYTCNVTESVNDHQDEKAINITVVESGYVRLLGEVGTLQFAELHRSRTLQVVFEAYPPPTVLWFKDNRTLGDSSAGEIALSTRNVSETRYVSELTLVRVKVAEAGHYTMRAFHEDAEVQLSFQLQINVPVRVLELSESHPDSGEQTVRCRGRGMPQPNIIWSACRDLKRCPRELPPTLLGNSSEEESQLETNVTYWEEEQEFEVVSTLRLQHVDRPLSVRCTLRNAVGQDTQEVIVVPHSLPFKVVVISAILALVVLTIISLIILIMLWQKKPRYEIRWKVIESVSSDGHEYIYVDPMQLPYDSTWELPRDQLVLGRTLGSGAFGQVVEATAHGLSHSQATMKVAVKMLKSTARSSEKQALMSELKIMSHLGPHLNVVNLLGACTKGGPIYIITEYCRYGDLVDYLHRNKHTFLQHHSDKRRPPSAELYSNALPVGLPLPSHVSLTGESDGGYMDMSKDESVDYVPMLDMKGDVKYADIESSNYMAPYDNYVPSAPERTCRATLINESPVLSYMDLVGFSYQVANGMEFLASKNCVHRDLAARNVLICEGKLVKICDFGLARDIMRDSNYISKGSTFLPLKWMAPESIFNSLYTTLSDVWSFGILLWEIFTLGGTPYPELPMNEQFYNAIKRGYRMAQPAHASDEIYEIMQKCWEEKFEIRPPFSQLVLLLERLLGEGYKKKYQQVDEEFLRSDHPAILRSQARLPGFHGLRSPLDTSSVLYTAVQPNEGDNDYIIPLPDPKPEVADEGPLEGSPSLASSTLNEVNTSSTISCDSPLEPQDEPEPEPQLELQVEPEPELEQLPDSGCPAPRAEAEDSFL
T1 sequence (P35918 20-1345): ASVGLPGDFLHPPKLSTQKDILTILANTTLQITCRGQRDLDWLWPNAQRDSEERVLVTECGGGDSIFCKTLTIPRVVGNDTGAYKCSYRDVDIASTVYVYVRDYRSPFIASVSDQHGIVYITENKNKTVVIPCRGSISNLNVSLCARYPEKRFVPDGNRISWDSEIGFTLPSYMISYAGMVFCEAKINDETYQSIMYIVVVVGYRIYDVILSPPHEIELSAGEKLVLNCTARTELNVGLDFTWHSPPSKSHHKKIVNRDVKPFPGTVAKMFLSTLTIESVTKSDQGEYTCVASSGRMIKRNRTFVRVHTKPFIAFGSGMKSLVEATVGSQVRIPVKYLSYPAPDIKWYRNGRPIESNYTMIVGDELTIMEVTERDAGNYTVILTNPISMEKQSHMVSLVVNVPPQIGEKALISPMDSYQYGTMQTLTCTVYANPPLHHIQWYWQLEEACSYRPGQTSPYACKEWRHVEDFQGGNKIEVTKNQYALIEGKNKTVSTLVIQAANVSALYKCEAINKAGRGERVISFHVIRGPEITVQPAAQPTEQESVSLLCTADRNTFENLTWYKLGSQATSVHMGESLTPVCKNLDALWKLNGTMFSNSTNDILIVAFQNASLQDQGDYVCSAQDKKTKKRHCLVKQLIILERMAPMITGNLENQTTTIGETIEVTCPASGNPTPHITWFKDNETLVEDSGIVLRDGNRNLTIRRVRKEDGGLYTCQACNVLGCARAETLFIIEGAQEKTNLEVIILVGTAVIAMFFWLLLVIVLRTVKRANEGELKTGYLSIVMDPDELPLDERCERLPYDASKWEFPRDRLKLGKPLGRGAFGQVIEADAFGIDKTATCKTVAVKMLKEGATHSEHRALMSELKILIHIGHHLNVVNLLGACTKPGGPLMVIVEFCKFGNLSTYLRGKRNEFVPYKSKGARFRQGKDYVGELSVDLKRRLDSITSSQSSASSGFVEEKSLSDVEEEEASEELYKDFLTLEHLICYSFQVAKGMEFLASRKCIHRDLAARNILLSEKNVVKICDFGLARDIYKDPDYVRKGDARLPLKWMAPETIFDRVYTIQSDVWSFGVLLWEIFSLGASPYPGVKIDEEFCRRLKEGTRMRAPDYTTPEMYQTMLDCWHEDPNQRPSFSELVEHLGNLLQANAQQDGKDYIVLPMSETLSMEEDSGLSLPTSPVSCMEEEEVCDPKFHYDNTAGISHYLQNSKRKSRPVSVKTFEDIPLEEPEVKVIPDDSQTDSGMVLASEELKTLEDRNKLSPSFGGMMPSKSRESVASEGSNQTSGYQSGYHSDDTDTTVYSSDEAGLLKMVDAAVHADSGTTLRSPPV

SMILES | Met Kinase % Inhibition (MET) | Fik Kinase %Inhibition (FLK-1 receptor) | PDGF Kinase %Inhibition (PDGF-R)
CCN(CC)c1ccc(C=C2C(=O)Nc3ccc(I)cc32)cc1 [10727/B02] | 90.5% | 2.4% | -10.3%
CCc1cc(CC)c(C=C2C(=O)Nc3ccc(I)cc32)[nH]1 [10727/B03] | 84.5% | -13.4% | -7.4%
O=C1Nc2ccc(I)cc2C1=Cc1cc(Cl)cc(Br)c1O [10727/B04] | 87.1% | 46.0% | 21.0%
O=C1Nc2ccc(I)cc2C1=Cc1ccccc1Sc1ccc(Cl)cc1 [10727/B05] | 83.3% | 10.5% | 9.4%
O=C1Nc2ccc(I)cc2C1=Cc1cc2c(cc1Cl)OCO2 [10727/B06] | 91.0% | -3.9% | 6.4%
O=C1Nc2ccc(I)cc2C1=Cc1coc2ccccc2c1=O [10727/B07] | 83.5% | 8.4% | 0.6%
N#Cc1cccc(C=C2C(=O)Nc3ccc(I)cc32)c1 [10727/B08] | 90.7% | 4.0% | 14.4%
N#Cc1ccc(C=C2C(=O)Nc3ccc(I)cc32)cc1 [10727/B09] | 81.9% | 6.7% | 18.1%
O=C1Nc2ccc(I)cc2C1=Cc1cc(O)ccc1O [10727/B10] | 99.2% | 3.9% | 29.7%
COc1cccc(C=C2C(=O)Nc3ccc(I)cc32)c1OC [10727/B11] | 69.8% | 16.8% | 15.9%
CCN(CC)c1ccc(C=C2C(=O)Nc3ccc(Br)c(C)c32)cc1 [10727/C02] | 73.8% | -2.0% | -12.5%
CCc1cc(CC)c(C=C2C(=O)Nc3ccc(Br)c(C)c32)[nH]1 [10727/C03] | 11.9% | -3.2% | 11.5%
Cc1c(Br)ccc2c1C(=Cc1cc(Cl)cc(Br)c1O)C(=O)N2 [10727/C04] | 81.7% | 0.2% | 23.2%
Cc1c(Br)ccc2c1C(=Cc1ccccc1Sc1ccc(Cl)cc1)C(=O)N2 [10727/C05] | 8.9% | 13.7% | 7.9%
Cc1c(Br)ccc2c1C(=Cc1cc3c(cc1Cl)OCO3)C(=O)N2 [10727/C06] | 45.2% | 5.2% | 12.3%
Cc1c(Br)ccc2c1C(=Cc1coc3ccccc3c1=O)C(=O)N2 [10727/C07] | 36.7% | 15.9% | 13.0%
Cc1c(Br)ccc2c1C(=Cc1cccc(C#N)c1)C(=O)N2 [10727/C08] | 47.8% | 4.9% | 23.2%
Cc1c(Br)ccc2c1C(=Cc1ccc(C#N)cc1)C(=O)N2 [10727/C09] | 37.9% | -13.5% | 21.7%
Cc1c(Br)ccc2c1C(=Cc1cc(O)ccc1O)C(=O)N2 [10727/C10] | 94.4% | -35.3% | 45.7%
COc1cccc(C=C2C(=O)Nc3ccc(Br)c(C)c32)c1OC [10727/C11] | 14.5% | -25.6% | 22.4%
CCN(CC)c1ccc(C=C2C(=O)Nc3ccc(S(=O)(=O)NC)cc32)cc1 [10727/D02] | 51.6% | 3.2% | 5.7%
CCc1cc(CC)c(C=C2C(=O)Nc3ccc(S(=O)(=O)NC)cc32)[nH]1 [10727/D03] | 24.0% | 3.1% | -3.0%
